Data as given in PubChem BioAssay AID1626 (SRMLSC, 2009).

System: M. tuberculosis H37Rv growth inhibition
Assay: M. tuberculosis H37Rv growth inhibitors, H37Rv strain (AID 1626)
Conditions: for IC90: measured here: IC90 against H37Rv; for CC50: measured here: Vero cell cytotoxicity

| SMILES | IC50 | IC90 | CC50 |
| --- | --- | --- | --- |
| COc1cc2nc(C3CCC3)nc(N3CCN(c4ccccc4OC)CC3)c2cc1OC | 3.9 µM | 6.52 µM | > 40 µM |
| O=C(c1coc2ccc(O)cc12)C1CC1 | 27.5 µM | > 100 µM | – |
| CCOC(=O)C(Cc1ccccc1)C(=O)Nc1cccc2ccccc12 (configuration not stated) | 4 µM | 12.7 µM | – |
| OC(CN1CCN(c2ccccn2)CC1)Cn1c2ccc(Cl)cc2c2cc(Cl)ccc21 (configuration not stated) | 2.31 µM | 3.12 µM | 21.5 µM |
| Cc1ccccc1OCc1nc(-c2ccc(NC(=O)c3cccs3)cc2)no1 | 4.48 µM | 46.6 µM | – |
| CCOC(=O)c1ccc(-n2c(CN(CC)CC)nc3ccc([N+](=O)[O-])cc3c2=O)cc1 | 54.1 µM | > 100 µM | – |
| Clc1ccc(-c2nnc(SCc3nc4ccccc4s3)o2)cc1 | 5.3 µM | > 100 µM | – |
| CCc1ccc2c(c1)/C(=C/C(=O)c1cccs1)C(=O)N2 | 3.06 µM | 12.2 µM | 18.9 µM |
| CCOC(=O)c1ccc(N=C(C)c2c(O)[nH]c(=O)[nH]c2=O)cc1 | – | > 100 µM | – |
| Cc1ccc(Cn2c(NC(=O)c3ccco3)nc3ccccc32)cc1 | 4.08 µM | > 100 µM | > 40 µM |
| Cc1[nH]n2c(=O)c3c(nc2c1-c1ccc(Cl)cc1)CCC3 | 13.3 µM | 31 µM | 19.6 µM |
| O=C(O)C1CCCCC1C(=O)Nc1ccccc1Nc1ccccc1 (configuration not stated) | – | > 100 µM | – |
| Cn1c(=O)[nH]c(=O)c2c1nc(N1CCCCC1)n2CCCSc1nc2ccccc2s1 | – | – | > 40 µM |
| Cc1nc(SCc2cccc(F)c2)c2oc3ccccc3c2n1 | 0.588 µM | 18 µM | – |
| CSc1ccc(/C=C/C(=O)c2ccc(NC(=O)Cc3ccccc3)cc2)cc1 | 4.66 µM | > 100 µM | > 40 µM |
| CN1c2ccc([N+](=O)[O-])cc2CC2(C(=O)NC(=O)N(c3ccc(Br)cc3)C2=O)C1c1ccccc1 (configuration not stated) | 0.964 µM | > 100 µM | > 40 µM |
| CCc1cc2cc(C(=O)Nc3ccc(C)cc3)sc2s1 | 1.34 µM | 1.81 µM | – |
| O=C(NCc1cn(-c2ccccc2)nc1-c1ccccc1)c1cc([N+](=O)[O-])cc([N+](=O)[O-])c1 | 0.591 µM | 0.847 µM | > 40 µM |
| Cn1c(-c2c(N)n(CCc3ccccc3)c3nc4ccccc4nc23)nc2ccccc21 | 1.83 µM | 28.4 µM | 35.1 µM |
| CCCOC(=O)c1ccc(NC(=O)COC)cc1 | 11.9 µM | > 100 µM | – |
| Cc1cccc(OCC(O)Cn2c(=N)n(CCN3CCCCC3)c3ccccc32)c1 (configuration not stated) | 5.87 µM | 6.69 µM | 35.8 µM |
| Cc1cc(C)n(-c2nc(NC(C)(C)C)nc(NC(C)(C)C)n2)n1 | < 0.195 µM | 21 µM | > 40 µM |

| SMILES | IC50 | IC90 | CC50 |
| --- | --- | --- | --- |
| CC(C)c1ccc(Nc2nc(NCc3ccco3)nc(N3CCOCC3)n2)cc1 | 4.99 µM | 8.29 µM | 34.6 µM |
| Cc1ccc2[nH]c3c(N4CCc5ccccc5C4)ncnc3c2c1 | 11.8 µM | 25.8 µM | 10.8 µM |
| CCC(=O)Nc1nc(-c2cc([N+](=O)[O-])cs2)cs1 | < 0.195 µM | > 100 µM | – |
| CCOC(=O)C(C)Sc1nnc(NC(=O)c2ccc(C)c([N+](=O)[O-])c2)s1 (configuration not stated) | 6.69 µM | 12.1 µM | – |
| OCCc1ccc(-c2ccc(Cl)cc2)o1 | 23.5 µM | > 100 µM | – |
| CCOCC(=O)Nc1ccc(Br)c(C)c1 | 9.8 µM | > 100 µM | – |
| COC(=O)c1ccc(NC(=O)CSC2=NCCN2)cc1 | – | > 100 µM | – |
| CC(C)(C)Nc1nc(NC(C)(C)C)nc(-n2ccnc2)n1 | 11.4 µM | 13.1 µM | – |
| Cc1cc(NCc2ccccn2)n2ncc(-c3ccccc3)c2n1 | 4.82 µM | 7.62 µM | 31.4 µM |
| Cc1cc(NCCCn2ccnc2)n2nc(-c3ccc(Cl)cc3)cc2n1 | 11.1 µM | 15.8 µM | > 40 µM |
| c1ccc(CCCN2CCN(CCOC(c3ccccc3)c3ccccc3)CC2)cc1 | 5.22 µM | 5.82 µM | > 40 µM |
| COc1ccc(/C=C2\SC(=N)N(c3nccs3)C2=O)cc1OC | < 0.195 µM | > 100 µM | 17.9 µM |
| Cc1[nH]n(C2=NCCS2)c(=O)c1N=Nc1cccc(C(F)(F)F)c1 | 0.387 µM | 1.47 µM | 9.46 µM |
| Nc1nc2ccccc2n1C(=O)c1ccccc1 | 21.9 µM | > 100 µM | > 40 µM |
| CCCOc1ccc(NCC(=O)Nc2ccc(C)cc2C)cc1 | < 0.391 µM | > 100 µM | – |
| Cc1nn(-c2ccccc2)c(Cl)c1/C=N/O | – | > 100 µM | – |
| Clc1ccc(-c2ccc(C=Nc3ccc(N4CCOCC4)cc3)o2)c(Cl)c1 | – | > 100 µM | – |
| N#Cc1ncc(-c2ccc3c(c2)OCCOCCOCCOCCOCCO3)nc1C#N | 1.8 µM | 3.08 µM | 22.6 µM |
| Cc1cc([N+](=O)[O-])ccc1NC(=O)CN1C2CCC1CC(NC(=O)NC13CC4CC(CC(C4)C1)C3)C2 (configuration not stated) | 3.02 µM | 5.59 µM | > 40 µM |
| CCOc1ccc2nc(/N=C/c3c(C)[nH]n(-c4ccc(C)cc4)c3=O)sc2c1 | 9.04 µM | > 100 µM | > 40 µM |
| COc1cc(-c2ccc3oc(-c4ccsc4)c(C#CC4(O)CCCCC4)c3c2)cc(OC)c1OC | 3.77 µM | > 100 µM | > 40 µM |
| O=C(c1ccc(F)cc1)C(CN1CCOCC1)c1ccccc1 (configuration not stated) | 6.14 µM | 7.01 µM | 20.7 µM |

| SMILES | IC50 | IC90 | CC50 |
| --- | --- | --- | --- |
| S=c1[nH]cnc2scc(-c3ccc(Br)cc3)c12 | – | > 100 µM | 34.8 µM |
| CCCc1nnc(NC(=O)c2c(O)c3cccc4c3n(c2=O)CCC4)s1 | < 0.391 µM | < 0.391 µM | 25.6 µM |
| CC(C)(C)n1c(O)c(C=Nc2ccc3c(c2)CCC3)c(=O)[nH]c1=O | 37.8 µM | > 100 µM | > 40 µM |
| O=C(Nc1nccs1)c1ccccn1 | 6.09 µM | 15.7 µM | > 40 µM |
| CCC(=Nc1ccccc1O)C1=C(O)CC(c2ccccc2)CC1=O (configuration not stated) | 1.51 µM | 1.72 µM | > 40 µM |
| CN(C)c1ccc(NC(=O)Cn2cc3c(n2)CCCC3)cc1 | 13 µM | 18.6 µM | – |
| O=C1Nc2ccccc2/C1=C/C(=O)c1cccs1 | 4.39 µM | 26.1 µM | 33.7 µM |
| CCOC(=O)/C=C/C(=O)Nc1nccs1 | – | > 100 µM | – |
| O=C(Nc1cccc2ccccc12)c1ccc([N+](=O)[O-])s1 | 51.4 µM | > 100 µM | – |
| Cc1ccc2c(Cl)cc(Cl)c(OCC(=O)NC(C)(C)C)c2n1 | 11.6 µM | > 100 µM | > 40 µM |
| Clc1ccc(CNc2nc(CN3CCOCC3)nc3scc(-c4ccccc4)c23)cc1 | 22 µM | 25 µM | > 40 µM |
| Nc1ccc(-n2ccnc2)cc1 | 41 µM | > 100 µM | – |
| Nc1cc(=O)[nH]c(SCC(=O)Nc2ccccc2-c2ccccc2)n1 | – | > 100 µM | > 40 µM |
| O=C(/C=C/c1ccc(Cl)cc1)c1cccnc1 | 2.01 µM | 4.7 µM | 28.5 µM |
| Clc1ccc2c(c1)C(c1ccccc1Cl)=NCc1nnc(N3CCN(CCOc4ccccc4)CC3)n1-2 | 12.5 µM | 16.7 µM | > 40 µM |
| Cc1[nH]n(-c2ccc(Br)cc2)c(=O)c1C=Nc1ccc(S(=O)(=O)Nc2nccs2)cc1 | 10.9 µM | > 100 µM | > 40 µM |
| Cc1nc2ccc(N)cc2s1 | 0.6 µM | > 100 µM | – |
| Nc1ccc(N=Nc2ccccc2)cc1 | – | > 100 µM | – |
| O=C(COC(=O)C1COc2ccccc2O1)NC(=O)Nc1ccc2c(c1)OCCO2 (configuration not stated) | – | > 100 µM | – |
| COc1ccc(COCC(O)CN2CCC(CN3C(=O)c4cccc5cccc(c45)C3=O)CC2)cc1OC (configuration not stated) | 12.9 µM | > 100 µM | > 40 µM |
| CCn1c(NC(=O)c2ccccc2)nc2ccccc21 | 1.71 µM | 8.64 µM | > 40 µM |
| CCCCNC(=O)Nc1nnc(-c2ccc(Cl)cc2)o1 | 1.33 µM | 3.59 µM | – |

| SMILES | IC50 | IC90 | CC50 |
| --- | --- | --- | --- |
| O=C(Nc1nc2ccccc2[nH]1)c1ccc(Cl)c([N+](=O)[O-])c1 | 13.7 µM | > 100 µM | > 40 µM |
| O=C(CSCc1nc2ccccc2[nH]1)Nc1ccc(Oc2ccccc2)cc1 | 22.9 µM | > 100 µM | > 40 µM |
| CNC(=O)c1csc(-c2ccc(Cl)cc2)n1 | 38.6 µM | > 100 µM | – |
| O=C(COc1ccc2ccccc2c1)Nc1nccs1 | – | > 100 µM | – |
| CCOc1ccc2nc(NC(=O)CSc3nc(-c4ccccc4)c(C#N)c(=O)[nH]3)sc2c1 | – | > 100 µM | – |
| CN(C)CCCNc1cc(C(C)(C)C)nc2c(-c3ccc(Cl)cc3)cnn12 | 0.874 µM | 1.37 µM | 9.25 µM |
| COc1cccc2c1nc(C)c1cc(C)oc12 | 5.65 µM | > 100 µM | > 40 µM |
| O=C(NCCC1=CCCCC1)NC12CC3CC(CC(C3)C1)C2 | < 0.195 µM | 67.6 µM | – |
| COc1ccc(Nc2cc(C)nc(-n3nc(C)cc3C)n2)cc1 | 6.15 µM | > 100 µM | > 40 µM |
| COC(=O)[C@H](NC(=O)c1cc(-c2ccccc2)nc2ccccc12)c1ccccc1 | 1.69 µM | 3.37 µM | – |
| C(=C\c1nc(N2CCCC2)c2ccccc2n1)/c1ccccc1 | 5.33 µM | 7.91 µM | > 40 µM |
| O=C(CSC1=NCCS1)Nc1ccc2ccccc2c1 | – | > 100 µM | – |
| Cc1ccc(-c2ccc(SCC(=O)Nc3nonc3C)nn2)cc1 | 1.79 µM | 3.88 µM | – |
| COC(=O)c1c(NC(=O)CC2SC(N)=NC2=O)sc2c1CCC(C(C)(C)C)C2 (configuration not stated) | 16.4 µM | 24 µM | 35 µM |
| COc1ccc(Oc2ccc(N/C=C/C(=O)C(C)(C)C)cc2)cc1 | 75 µM | > 100 µM | – |
| Cc1ccc(NC(=O)c2ccc(CSc3nccc(C)n3)cc2)cc1 | 12.2 µM | > 100 µM | – |
| CNC1=C(N(C(C)=O)c2ccc(Br)cc2)C(=O)c2ccccc2C1=O | 0.654 µM | 2.54 µM | 10 µM |
| CCOc1ccc(NC(=O)CCN2CCN(c3ccccc3)CC2)cc1 | – | > 100 µM | – |
| Cc1c2c(nc3ccccc13)CCC(C)C2 (configuration not stated) | 16.6 µM | 40.6 µM | – |
| Nc1nnc(SCc2ccc(F)cc2)s1 | – | > 100 µM | – |
